How the values were obtained:
[1] = tested on: LPS-stimulated RAW264.7 cells; test: Time of addition experiment (peptide pretreatment, LPS neutralization, post-treatment) in RAW264.7 cells; format: cell-based, mouse; settings: ELISA
Procedure: To identify the mechanisms underlying the anti-inflammatory effects, three different types of treatments were performed as follow.
Briefly, 10 μg/ml peptide was added to the cell culture medium and incubated with cells for 1 h at 37°C Afterwards, the RAW 264.7 cells were washed with PBS and cultured with fresh medium containing 100 ng/ml LPS for 12 h at 37°C. After treatment, TNF-α, IL-6, and IL-1β secretion in the cell supernatants was assessed.
The peptides (10 μg/ml) were incubated with 100 ng/ml LPS directly for 1 h at 37°C. RAW 264.7 cells were stimulated with these mixtures for 12 h at 37°C. Afterwards, the TNF-α, IL-6 and IL-1β levels in the cell supernatants were assessed.
Briefly, 100 ng/ml LPS was added to the cell culture medium and incubated with cells for 1 h at 37°C. Afterwards, the RAW 264.7 cells were washed with PBS and cultured with fresh medium containing 10 μg/ml peptides for 12 h at 37°C. Afterwards, the TNF-α, IL-6, and IL-1β levels in the cell supernatants were assessed.
The levels of tumor necrosis factor (TNF)-α, interleukin (IL)-6, and IL-1β in cell culture supernatants and the levels of TNF-α, IL-6, and IL-1β in the serum of mice were detected using commercial ELISA kits (eBioscience, San Diego, USA) according to the manufacturer’s instructions. The levels of serum alanine amino transferase (ALT) and aspartate amino transferase (AST) were detected using commercial reagent kits (Nanjing Jiancheng Bioengineering Institute, Nanjing, China). The activity of myeloperoxidase (MPO) in the liver of mice was detected using an ELISA kit (Boster, Wuhan, China) according to the manufacturer’s instructions.

RAW264.7 cells [2] = test: CCK-8 cell viability assay; format: cell-based, mouse; settings: RAW264.7 macrophages, CCK-8, 0 to 80 μg/ml, 24 h or 72 h, 37°C
Procedure: The viability of peptide-treated RAW264.7 cells was determined using a Cell Counting Kit-8 (CCK-8) Assay Kit (Dojindo) ([35]). RAW264.7 cells were plated in 96-well plates at a density of 3×10^4 cells/ml in 100 μl DMEM overnight. The cell culture medium was then supplemented with fresh medium containing candidate peptides in a series of concentrations, and the plates were incubated for another 24 h or 72 h. Each well was incubated with 10 μl CCK-8 solution for 4 h in the dark. Afterwards, the absorbance at 450 nm was measured using a microplate reader. Cell viability was determined by:
Cell viability (%)=(OD450sample/OD450(control))×100%

[3] = LPS neutralization, chromogenic end-point Tachypleus Amebocyte Lysate (TAL) assay; format: binding, E. coli; settings: chromogenic TAL assay, LPS 1.0 U/ml, 0 to 64 μg/ml peptide
Procedure: The neutralization of LPS by the peptides was assessed through a quantitative Chromogenic End-point Tachypleus Amebocyte Lysate (CE TAL) assay using a QCL-1000 kit (XIAMEN BIOENDO TECHNOLOGY CO., China). LPS (E. coli, O111:B4, Sigma-Aldrich, USA) at a final concentration of 1.0 U/ml was incubated with various concentrations of the peptides (0 to 64 μg/ml final concentration) at 37°C for 15 min. Afterwards, the mixtures were incubated with TAL assay reagent at 37°C; for 6 min, and the absorbance was measured at 540 nm.

[4] = Reverse-phase HPLC retention time as measure of peptide hydrophobicity; format: physicochemical; settings: HPLC on reverse-phase matrix, aqueous solution; used by the paper as measure of hydrophobicity
Excerpt: The retention time of peptides on a reverse-phase matrix has been reported to be related to peptide hydrophobicity ([34]).

RAW264.7 cells [5] = test: Cellular uptake and localization of FITC-labeled peptides (confocal microscopy, flow cytometry); format: cell-based, mouse; settings: N-terminus FITC-labeled peptide, 10 μg/ml, 24 h, 37°C, confocal microscopy and flow cytometry (average FITC intensity)
Procedure: RAW264.7 cells were treated with N-terminus FITC-labeled peptides at 10 μg/ml for 24 h at 37°C; in the dark. Then, the RAW264.7 cells were rinsed with PBS three times, fixed with paraformaldehyde and washed with PBS. The cell nuclei were stained with DAPI (diluted 1:500 in PBS) (Sigma, USA) for 5 min, and the cells were washed with PBS. The above cells were spread on a glass slide, fixed and observed with a Leica TCA sp5 confocal microscope (Germany).
RAW264.7 cells were stained with 10 μg/ml N-terminus FITC-labeled peptides at 37°C in the dark for 24 h. Afterwards, the RAW264.7 cells were harvested and rinsed with PBS five times. The average FITC intensity in the cells was measured via flow cytometry.

[6] = tested on: NF-κB signaling pathway in LPS-treated RAW264.7 cells; test: Western blotting of the NF-κB signaling pathway; format: cell-based, mouse; settings: 100 ng/ml LPS 1 h, wash, CTP-NH2 3 h, western blot
Procedure: RAW264.7 cells plated at a density 1.8 × 10^6 cells/ml were incubated with LPS (100 ng/ml) at 37°C for 1 h. After that, the cells were washed extensively with PBS before being treated with CTP-NH2 for 3 h at 37°C, followed by lysis of the cells. Cytoplasmic and nuclear protein fractions were obtained using NR-PER Nuclear and Cytoplasmic Extraction Reagents (Thermo Fisher Scientific Inc., New Zwaland). The protein concentrations were assessed with a […] (KeyGEN Biotech. Nanjing, China) according to the manufacturer’s instructions. Afterwards, total protein (40 μg protein/lane) was separated on 10% SDS-PAGE gels and then transferred to PVDF membranes (Bio-Rad). Next, the membranes were blocked with 5% non-fat dried-milk containing 0.05% TBST and then immunoblotted with specific primary antibodies against IKK-β, p-IKK-β, IкB-α, p-IкB-α, NF-кB (p65), p-NF-кB (p-p65), and β-actin (Santa Cruz, CA, USA). After being washed with TBST, the membranes were incubated with HRP-conjugated secondary antibodies (HuaAn, Hangzhou, China). A ChemiDoc MP Imaging System (Bio-Rad, Hercules, CA, USA) was used to quantify the density of the specific proteins.

Substance: RWGRFLRKIRRFRRKDVT-NH2 [CTP-NH2, C-terminal amidated derivative peptide of CTP]
- TNF-α and IL-6 level, peptide used to pretreat cells or added after LPS induction ([1]; 10 μg/ml peptide 1 h then wash and 100 ng/ml LPS 12 h, or LPS 1 h, wash, then peptide 12 h): reduced the concentration of TNF-α
- TNF-α and IL-6 release, peptide incubated with LPS ([1]; 10 μg/ml peptide incubated with 100 ng/ml LPS 1 h at 37°C, mixture on cells 12 h): more potency than CTP
- cytotoxicity (comparison in words) (RAW264.7 cells [2]): less cytotoxicity than CTP
- LPS neutralization activity [3]: stronger than that of CTP
- Retention time [4]: 11.96 min
- cellular uptake and localization (RAW264.7 cells [5]): significant cellular uptake and a dispersed distribution compared with CTP
- phosphorylation of IKK-β, IκB-α and NF-κB [6]: dampened levels of IKK-β

From article PMC7892475, “C-Terminal Amination of a Cationic Anti-Inflammatory Peptide Improves Bioavailability and Inhibitory Activity Against LPS-Induced Inflammation” (Frontiers in Immunology, 2021)
